The target in assay [1] is recombinant human Mcl-1 (residues 171-327) / Bim interaction (Homo sapiens (Human), UniProt Q07820). The assay can be described thus: biochemical. It is filed as binding. As to conditions: read-out: Mcl-1 HTRF IC50.
The test system of assay [2] is human multiple myeloma cell line, OPM-2. Put plainly: Cell viability assay (OPM-2 10 FBS), CellTiter-Glo. It is filed as cell-based. In short, it runs like this: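 OPM-2 cells at 3000 cells/well in RPMI 1640 with 10% FBS were exposed to serially diluted compounds for 16 h at 37 °C, 5% CO2.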
(In general: ATP-based viability assays read luminescence as a measure of living cells.)

Where [3] appears, read: TR-FRET, Mcl-1(171-327) / biotin-Bim (51-76).
[4] abbreviates: Homo sapiens, OPM-2, 16 h, read-out: OPM-2 10% FBS IC50 IP, OPM-2 cells, 10% FBS, 16 h, CellTiter-Glo.
The mark [5] stands for this setting: 0.1 nM Mcl-1(171-327), 0.05 nM biotin-Bim (51-76).
Where [6] appears, read: Homo sapiens, OPM-2, 16 h, read-out: OPM-2 10% FBS IC50 IP, OPM-2 cells, 10% FBS, 16 h incubation.
Setting [7] is: read-out: OPM-2 10% FBS IC50 IP, OPM-2 cells, 10% FBS, 16 h, CellTiter-Glo.

This passage reports IC50 results from US10821115B2, “Compounds that inhibit Mcl-1 protein” (priority 2017, dated 2020).

Where two headings read alike, the source gives them in different places. Some results are limits rather than exact numbers.

The IC50 is the concentration that inhibits the measured activity by half.

recombinant human Mcl-1 (residues 171-327) / Bim interaction, sequence (Q07820 171-327): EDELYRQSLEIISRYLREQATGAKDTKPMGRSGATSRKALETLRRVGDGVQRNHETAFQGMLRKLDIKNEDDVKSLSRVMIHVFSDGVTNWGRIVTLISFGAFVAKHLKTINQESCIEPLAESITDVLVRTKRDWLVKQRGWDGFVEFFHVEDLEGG

As for `C#C[C@]1(OCCN2CCOCC2)/C=C/C[C@H](C)[C@@H](C)S(=O)(=O)NC(=O)c2ccc3c(c2)N(C[C@@H]2CC[C@H]21)C[C@@]1(CCCc2cc(Cl)ccc21)CO3` [Example 100504, (1S,3′R,6′R,7′S,8′E,11′S,12′R)-6-chloro-7′-ethynyl-11′,12′-dimethyl-7′-(2-(4-morpholinyl)ethoxy)-3,4-dihydro-2H,15′H-spiro[naphthalene-1,22′-[20]oxa[13]thia[1,14]diazatetracyclo [14.7.2.0~3,6~.0~19,24~]pentacosa[8,16,18,24]tetraen]-15′-one 13′,13′-dioxide], the values for the IC50 in assay [1] (setting [3]) and in assay [2] (setting [4]) were 0.803 nM and 1890 nM, respectively.

Consider `CO[C@]1(CN2CC(=O)N3CCCC[C@@H]3C2)/C=C/C[C@H](C)[C@@H](C)S(=O)(=O)NC(=O)c2ccc3c(c2)N(C[C@@H]2CC[C@H]21)C[C@@]1(CCCc2cc(Cl)ccc21)CO3` [Example 149], for which the IC50 is 0.128 nM in assay [1] (setting [5]) and 119 nM in assay [2] (setting [6]).

For `Cc1cc(C[C@@]2(O)/C=C/C[C@H](C)[C@@H](C)S(=O)(=O)NC(=O)c3ccc4c(c3)N(C[C@@H]3CC[C@H]32)C[C@@]2(CCCc3cc(Cl)ccc32)CO4)no1` [Example 100540, (1S,3′R,6′R,7′R,8′E,11′S,12′R)-6-chloro-7′-hydroxy-11′,12′-dimethyl-7′-((5-methyl-1,2-oxazol-3-yl)methyl)-3,4-dihydro-2H,15′H-spiro[naphthalene-1,22′-[20]oxa[13]thia[1,14]diazatetracyclo [14.7.2.0~3,6~.0~19,24~]pentacosa[8,16,18,24]tetraen]-15′-one 13′,13′-dioxide], the IC50 is 0.275 nM in assay [1] (setting [3]) and 320 nM in assay [2] (setting [4]).

For the compound `CC(C)CO[C@@]1(CN2CCN3CCOC[C@@H]3C2)/C=C/C[C@H](C)[C@@H](C)S(=O)(=O)NC(=O)c2ccc3c(c2)N(C[C@@H]2CC[C@H]21)C[C@@]1(CCCc2cc(Cl)ccc21)CO3` [Example 349, (1S,3′R,6′R,7′S,8′E,11′S,12′R)-6-chloro-7′-((9aS)-hexahydropyrazino[2,1-c][1,4]oxazin-8(1H)-ylmethyl)-11′,12′-dimethyl-7′-(2-methylpropoxy)-3,4-dihydro-2H,15′H-spiro[naphthalene-1,22′-[20]oxa[13]thia[1,14]diazatetracyclo [14.7.2.0~3,6~.0~19,24~]pentacosa[8,16,18,24]tetraen]-15′-one 13′,13′-dioxide], the IC50 stood at 1.61 nM in assay [1] (setting [5]) and 7790 nM in assay [2] (setting [6]).

Turning to `CO[C@H](C)[C@]1(OC)/C=C/C[C@H](C)[C@@H](C)S(=O)(=O)NC(=O)c2ccc3c(c2)N(C[C@@H]2CC[C@H]21)C[C@@]1(CCCc2cc(Cl)ccc21)CO3` [Example 100475, (1S,3′R,6′R,7′S,8′E,11′S,12′R)-6-chloro-7′-methoxy-7′-((1R)-1-methoxyethyl)-11′,12′-dimethyl-3,4-dihydro-2H,15′H-spiro[naphthalene-1,22′-[20]oxa[13]thia[1,14]diazatetracyclo [14.7.2.0~3,6~.0~19,24~]pentacosa[8,16,18,24]tetraen]-15′-one 13′,13′-dioxide], the IC50 in assay [1] (setting [3]) was 1.36 nM; in assay [2] (setting [7]), 2710 nM.

Take `C[C@@H]1[C@@H](C)C/C=C/[C@@](CC(=O)N(C)C)(OCCN2CCOCC2)[C@@H]2CC[C@H]2CN2C[C@@]3(CCCc4cc(Cl)ccc43)COc3ccc(cc32)C(=O)NS1(=O)=O` (single isomer, unassigned) [Example 100310]: the IC50 in assay [1] (setting [3]) was 0.152 nM; in assay [2] (setting [4]) it was 120 nM.

For the compound `CO[C@]1(CN2CCN(C3CCC3)CC2)/C=C/C[C@H](C)[C@@H](C)S(=O)(=O)NC(=O)c2ccc3c(c2)N(C[C@@H]2CC[C@H]21)C[C@@]1(CCCc2cc(Cl)ccc21)CO3` [Example 92, (1S,3′R,6′R,7′R,8′E,11′S,12′R)-6-chloro-7′-((4-cyclobutyl-1-piperazinyl)methyl)-7′-methoxy-11′,12′-dimethyl-3,4-dihydro-2H,15′H-spiro[naphthalene-1,22′-[20]oxa[13]thia[1,14]diazatetracyclo [14.7.2.0~3,6~.0~19,24~]pentacosa[8,16,18,24]tetraen]-15′-one 13′,13′-dioxide], the IC50 in assay [1] (setting [5]) worked out at 0.143 nM; in assay [2] (setting [6]), 199 nM.

On to `CC[C@@H]1CC/C=C/[C@](O)(C(F)(F)F)[C@@H]2CC[C@H]2CN2C[C@@]3(CCCc4cc(Cl)ccc43)COc3ccc(cc32)C(=O)NS1(=O)=O` [Example 100044, (1S,3′R,6′R,7′R,8′E,12′R)-6-chloro-12′-ethyl-7′-hydroxy-7′-(trifluoromethyl)-3,4-dihydro-2H,15′H-spiro[naphthalene-1,22′-[20]oxa[13]thia[1,14]diazatetracyclo [14.7.2.0~3,6~.0~19,24~]pentacosa[8,16,18,24]tetraen]-15′-one 13′,13′-dioxide], for which the half-maximal inhibitory concentration (IC50) in assay [1] (setting [3]) stood at 31.1 nM; in assay [2] (setting [7]), 7290 nM.

On to `CCO[C@@]1(CN2CCN(CC)CC2)/C=C/C[C@H](C)[C@@H](C)S(=O)(=O)NC(=O)c2ccc3c(c2)N(C[C@@H]2CC[C@H]21)C[C@@]1(CCCc2cc(Cl)ccc21)CO3` [Example 112, (1S,3′R,6′R,7′S,8′E,11′S,12′R)-6-chloro-7′-ethoxy-7′-((4-ethyl-1-piperazinyl)methyl)-11′,12′-dimethyl-3,4-dihydro-2H,15′H-spiro[naphthalene-1,22′-[20]oxa[13]thia[1,14]diazatetracyclo [14.7.2.0~3,6~.0~19,24~]pentacosa[8,16,18,24]tetraen]-15′-one 13′,13′-dioxide], for which the IC50 stood at 0.617 nM in assay [1] (setting [5]) and 654 nM in assay [2] (setting [6]).

For `COCC[C@@H]1[C@@H](C)C/C=C/[C@@](CN2CCN(C3COC3)CC2)(OC)[C@@H]2CC[C@H]2CN2C[C@@]3(CCCc4cc(Cl)ccc43)COc3ccc(cc32)C(=O)NS1(=O)=O` [Example 187, (1S,3′R,6′R,7′R,8′E,11′S,12′R)-6-chloro-7′-methoxy-12′-(2-methoxyethyl)-11′-methyl-7′-((4-(3-oxetanyl)-1-piperazinyl)methyl)-3,4-dihydro-2H,15′H-spiro[naphthalene-1,22′-[20]oxa[13]thia[1,14]diazatetracyclo [14.7.2.0~3,6~.0~19,24~]pentacosa[8,16,18,24]tetraen]-15′-one 13′,13′-dioxide], the half-maximal inhibitory concentration (IC50) in assay [1] (setting [5]) came out at 0.066 nM; in assay [2] (setting [6]), 43 nM.

As for `CCO[C@]1(CN2CCN(C(C)(C)C)CC2)/C=C/C[C@H](C)[C@@H](CCOC)S(=O)(=O)NC(=O)c2ccc3c(c2)N(C[C@@H]2CC[C@H]21)C[C@@]1(CCCc2cc(Cl)ccc21)CO3` [Example 190, (1S,3′R,6′R,7′R,8′E,11′S,12′R)-7′-((4-tert-butyl-1-piperazinyl)methyl)-6-chloro-7′-ethoxy-12′-(2-methoxyethyl)-11′-methyl-3,4-dihydro-2H,15′H-spiro[naphthalene-1,22′-[20]oxa[13]thia[1,14]diazatetracyclo [14.7.2.0~3,6~.0~19,24~]pentacosa[8,16,18,24]tetraen]-15′-one 13′,13′-dioxide], the results for the IC50 in assay [1] (setting [5]) and in assay [2] (setting [6]) were 0.087 nM and 53 nM, respectively.

Consider `C[C@@H]1[C@@H](C)CCC[C@](C)(O)[C@@H]2CC[C@H]2CN2C[C@@]3(CCCc4cc(Cl)ccc43)COc3ccc(cc32)C(=O)NS1(=O)=O` [Example 100049, (1S,3′R,6′R,7′S,11′S,12′R)-6-chloro-7′-hydroxy-7′,11′,12′-trimethyl-3,4-dihydro-2H,15′H-spiro[naphthalene-1,22′-[20]oxa[13]thia[1,14]diazatetracyclo [14.7.2.0~3,6~.0~19,24~]pentacosa[16,18,24]trien]-15′-one 13′,13′-dioxide], for which the IC50 in assay [1] (setting [3]) was 1.26 nM; in assay [2] (setting [4]), 2150 nM.

As to `COCCN1CCN(C[C@]2(OC)/C=C/C[C@H](C)[C@@H](C)S(=O)(=O)NC(=O)c3ccc4c(c3)N(C[C@@H]3CC[C@H]32)C[C@@]2(CCCc3cc(Cl)ccc32)CO4)CC1=O` [Example 55, (1S,3′R,6′R,7′S,8′E,11′S,12′R)-6-chloro-7′-methoxy-7′-((4-(2-methoxyethyl)-3-oxo-1-piperazinyl)methyl)-11′,12′-dimethyl-3,4-dihydro-2H,15′H-spiro[naphthalene-1,22′-[20]oxa[13]thia[1,14]diazatetracyclo [14.7.2.0~3,6~.0~19,24~]pentacosa[8,16,18,24]tetraen]-15′-one 13′,13′-dioxide], the values for the IC50 in assay [1] (setting [5]) and in assay [2] (setting [6]) were 0.162 nM and 80 nM, respectively.

For the compound “(1S,3′R,6′R,7′S,8′E,11′S,12′R)-6-chloro-7′-((9aS)-hexahydropyrazino[2,1-c][1,4]oxazin-8(1H)-ylmethyl)-7′-methoxy-11′-methyl-3,4-dihydro-2H,16′H-spiro[naphthalene-1,23′-[21]oxa[27]thia[1,15]diazapentacyclo[15.7.2.1-12,15˜.0˜3,6˜.0˜20,25˜]heptacos a[8,17,19,25]tetraen]-16′-one 27′,27′-dioxide [Example 364]”, the concentration for half-maximal inhibition (IC50) in assay [1] (setting [5]) is 192 nM; in assay [2] (read-out: OPM-2 10% FBS IC50 IP, OPM-2 cells, 10% FBS, 16 h incubation), over 33300 nM.

`C[C@@H]1[C@@H](C)CCC[C@@](O)(C#CCCN2CCOCC2)[C@@H]2CC[C@H]2CN2C[C@@]3(CCCc4cc(Cl)ccc43)COc3ccc(cc32)C(=O)NS1(=O)=O` [Example 100371, (1S,3′R,6′R,7′S,11′S,12′R)-6-chloro-7′-hydroxy-11′,12′-dimethyl-7′-(4-(4-morpholinyl)-1-butyn-1-yl)-3,4-dihydro-2H,15′H-spiro[naphthalene-1,22′-[20]oxa[13]thia[1,14]diazatetracyclo [14.7.2.0~3,6~.0~19,24~]pentacosa[16,18,24]trien]-15′-one 13′,13′-dioxide]: the IC50 in assay [1] (setting [3]) was determined as 0.39 nM; in assay [2] (setting [7]), 307 nM.
